# Measurements as given in US7297353B2, “Use of anemonin for treating aseptic inflammations” (priority 2000, dated 2007).
# Key:
# [1] = system: carrageenan-induced paw edema; experiment: Acute hind paw edema of rats induced by carrageenan; type: in vivo
# Procedure: The animals were injected subcutaneously with carrageenan (10 μl of 1% solution in saline) into the right paw. Anti-inflammatory properties of external anemonin were studied by applying with various liniment solution of anemonin (0.125, 0.5, 2 mg/ml, 0.5 ml) for 2 h immediately after administration of carrageenan. The rats of control group were treated with the same volume of solvent (25% ethanol). The paw volumes of rats were measured at 0, 2 h, 3 h, 4 h, 5 h, 6 h after injection of carrageenan. The paw edema was represented by subtracting the volume of the untreated same paw from that of the treated paw.
# [2] = system: staphylococcus, streptococcus, Bacillus diphtheriae, Mycobacterium tuberculosis, and E. coli; conditions: cited from earlier work
# [3] = system: IFN-γ; experiment: Cytokine production from splenocytes, Sac stimulation, IFN-γ (ELISA); type: cell-based, murine; conditions: 24 h
# Procedure: For splenocyte cytokine production assay, 5×10^6 cells per well were inoculated into a 24-well tissue culture plate with ConA (5 mg/L) or Sac (1:10000) stimulation. Different concentrations of Anemonin were added in a final volume of 2 ml. Cells were incubated at 37° C., 5% CO2 for 24 h and supernatants were harvested, IFN-γ, IL-10, IL12 (p40) and IL-2 in supernatants were measured by the sandwich enzyme-linked immunosorbent assay (ELISA) as specified by the manufacturer (BD Bioscience pharmingen, US). Concentrations of the cytokine productions were calculated based on standard curves obtained from serial dilutions of murine cytokines (r IFN-γ, rIL-10, rIL12, rIL-2). As shown in Tables C-3 and C-4, high-dose Anemonin (1-100 μg/ml) inhibited all kinds of cytokine release induced by ConA or Sac.
structure (smiles),measurement,setting,value
"O=C1C=CC2(CCC23C=CC(=O)O3)O1 (centres unmarked) [Anemonin, anemonin]",Paw edema,"[1]; 0.125 mg/ml liniment, 2 h",0.24 ± 0.06 mL
same,Paw edema,"[1]; 0.125 mg/ml liniment, 3 h",0.20 ± 0.09 mL
same,Paw edema,"[1]; 0.125 mg/ml liniment, 4 h",0.33 ± 0.08 mL
same,Paw edema,"[1]; 0.125 mg/ml liniment, 5 h",0.36 ± 0.11 mL
same,Paw edema,"[1]; 0.125 mg/ml liniment, 6 h",0.39 ± 0.08 mL
same,Paw edema,"[1]; 0.5 mg/ml liniment, 2 h",0.24 ± 0.13 mL
same,Paw edema,"[1]; 0.5 mg/ml liniment, 3 h",0.21 ± 0.08 mL
same,Paw edema,"[1]; 0.5 mg/ml liniment, 4 h",0.25 ± 0.07 mL
same,Paw edema,"[1]; 0.5 mg/ml liniment, 5 h",0.35 ± 0.10 mL
same,Paw edema,"[1]; 0.5 mg/ml liniment, 6 h",0.40 ± 0.08 mL
same,Paw edema,"[1]; 2 mg/ml liniment, 0.5 ml for 2 h, 2 h after carrageenan",0.25 ± 0.08 mL
same,Paw edema,"[1]; 2 mg/ml liniment, 3 h",0.16 ± 0.08 mL
same,Paw edema,"[1]; 2 mg/ml liniment, 4 h",0.25 ± 0.07 mL
same,Paw edema,"[1]; 2 mg/ml liniment, 5 h",0.30 ± 0.06 mL
same,Paw edema,"[1]; 2 mg/ml liniment, 6 h",0.31 ± 0.10 mL
same,paw edema development,"[1]; liniment 0.125, 0.5, 2 mg/ml, dose-dependent manner",significantly reduced
same,inhibitory against bacteria,[2],inhibitory
same,IFN-γ,[3]; 0.001 μg/ml,237 ± 3 pg/mL
same,IFN-γ,[3]; 0.01 μg/ml,230 ± 23 pg/mL
same,IFN-γ,[3]; 0.1 μg/ml,143 ± 0 pg/mL
same,IFN-γ,[3]; 1 μg/ml,95 ± 2 pg/mL
same,IFN-γ,[3]; 10 μg/ml,98 ± 7 pg/mL
same,IFN-γ,[3]; 100 μg/ml,89 ± 2 pg/mL
